One test relates to TNFα. Put plainly: Mouse TNF alpha quantification assay (LPS-stimulated RAW 264.7, ELISA). The following applies: RAW 264.7 murine leukemia virus transformed macrophage cell lines, LPS stimulation; for inhibition at 30 µM: Mus musculus, RAW264.7, 30 μM, read-out: TNF-α % Inhibition at 30 μM. The class given is cell-based. The protocol:
(§1) Cell lines: Abelson murine leukemia virus transformed macrophage cell line RAW 264.7 was purchased from ATCC and grown in complete DMEM-High Glucose medium supplemented with penicillin (100 U/mL), streptomycin (100 μg/mL), and 10% heat-inactivated FBS at 37° C. in a humidified incubator with 5% CO2.
(§2) Method: Cells were plated at 40000 cells/well density in a 96-wells plate. After a 3-hour incubation, macrophages were starved with DMEM plus 0.5% FBS o/n. The next day the small molecules to be tested were added to the cells in the final concentration of 30 μM (with 0.3% DMSO) 3 hours prior to LPS stimulation (100 ng/ml). After LPS stimulation cells were incubated at 37° C. for 16h. At the end of the incubation period, culture media were collected and production of LPS-induced TNFα and IL6 cytokine was measured using ELISA detection kits.
(§3) Sandwich ELISA: The ELISA Immunoassays Quantikine Mouse TNF-alpha (catalog number MTA00B) and IL6 (catalog number M6000B) were purchased from R&D Systems Inc., Minneapolis, Minn. These 4.5 hours solid phase ELISAs were used to measure mouse TNFα or IL6 levels in macrophages culture supernatants. Assays were executed according to the manufacturer specifications.
(An ELISA detects its analyte on a solid surface through an enzyme-linked reagent.)

The subject of another test is IL6. Nature of the test: Mouse IL6 quantification assay (LPS-stimulated RAW 264.7, ELISA). The class given is cell-based. The following applies: RAW 264.7 murine leukemia virus transformed macrophage cell lines, LPS stimulation; for inhibition at 30 µM: Mus musculus, RAW264.7, 30 μM, read-out: IL-6 % Inhibition at 30 μM. The protocol: as §1, §2, §3
In test [1] the test system is MIA-PACA2 pancreatic cancer cell lines. Nature of the test: Cell proliferation assay, alternate assay conditions (DAPI staining). Type of test: cell-based. The following applies: Homo sapiens, MIA PaCa-2; for inhibition at 10 µM: * = tested at 10 μM, alternate conditions, MIA-PACA2; for IC50: MIA-PACA2 proliferation, same assay as % inhibition (alternate conditions). The protocol: Cell lines: Tumor-derived pancreatic cancer cell lines MIA-PACA2 were purchased from ATCC and grown in complete DMEM-High Glucose medium supplemented with penicillin (100 U/mL), streptomycin (100 μg/mL), and 10% heat-inactivated FBS at 37° C. in a humidified incubator with 5% CO2.
Method: Cells are plated at 4000 cells/well density in 96-wells plate. The next day tested small molecules are added to the cells in the final concentration of 10 μM in the presence of 0.3% DMSO and 10% FBS. After small molecules addition, cells are incubated for 4 days at 37° C. in a humidified incubator with 5% CO2. For IC50 value determination, serial dilutions of compounds were added to cells under the same conditions.
Assay: At the end of the incubation period, cell cultures are fixed with a 50-50 mixture (v/v) acetone-methanol for 10 minutes at −20° C., followed by rehydration in PBS for 10 minutes at room temperature. After rehydration, cells are stained with DAPI (1 μg/ml) in PBS for 10 minutes at room temperature, followed by 3 washes with PBS. After staining, DAPI fluorescence is recorded (358 nm excitation/461 nm emission) with the 96-well plate reader Molecular Devices Spectramax M3; degree of small mole-cule-dependent proliferation inhibition is calculated from raw data assuming No Serum cells value as 100%.

Test [2] concerns the target KRas G12D/Q61H double mutant (Homo sapiens (Human), UniProt P01116, G12D/Q61H). Put plainly: Ras GTP binding domain inhibition assay. The following applies: at 20 μM; read-out: KRas G12D Q61H % Inh. The protocol:
(§4) Buffer-I: • 50 mM Tris, pH 7.5 • 150 mM NaCl (optional) • 1 mM MgCl2 • 1 mM DTT. • KRas G12D mutant protein was expressed as a His-tagged protein. Purified His-KRas G12D protein was diluted in buffer-I to a final concentration of 3-10 μg/ml. • 200 μl of the diluted His-KRas G12D protein was added to a nickel coated 96 well plate and incubated overnight at 4° C. • The next day, wells were washed 3× in 200 μl of Buffer-I. • Then 200 μl of Buffer-I were added to each well in the presence of 1% DMSO. • Tested compounds were added to the protein-coated wells at a concentration of 20 μM, and incubated for 3 hours at room temperature. While performing IC50 measurements a serial dilution of all tested concentrations was prepared.
(§5) Then 22 μl of Cy3-GTP or Cy5-GTP was added to each well. The labeled GTP was incubated for 45 min. at room temperature. • Following GTP incubation, wells were washed 3× in Buffer-I, and 200 μl of Buffer-I were added to each well. • Following washes, the amount of bound labeled-GTP was measured with an Eppendorf AF2200 plate reader.
By substituting KRas G12D mutant protein with KRas G12C mutant, KRas wild type, KRas Q61H mutant, KRas G12D/Q61H double mutant or KRas G12C/Q61H double mutant under the assay conditions described above, KRas G12C mutant KRas wild type, KRas Q61H mutant, KRas G12D/Q61H double mutant and KRas G12C/Q61H double mutant inhibition, respectively, were each determined.

In another test the target is Rac-1 (Homo sapiens (Human), UniProt P63000). Nature of the test: Rac and Rho inhibition assay. The class given is binding. The following applies: read-out: Rac-1 % Inh. How it is done: as §4, §5
(§6) By substituting KRas G12D mutant protein with either Rac-1 or Rho-A under the assay conditions described in Example 5, Rac-1 and Rho-A inhibition, respectively, were each determined.

Another test concerns the target Rho-A (Homo sapiens (Human), UniProt P61586). Put plainly: Rac and Rho inhibition assay. Type of test: binding. The following applies: read-out: Rho-A % Inh. The protocol: as §4, §5, §6

Rho-A, sequence (P61586 whole entry): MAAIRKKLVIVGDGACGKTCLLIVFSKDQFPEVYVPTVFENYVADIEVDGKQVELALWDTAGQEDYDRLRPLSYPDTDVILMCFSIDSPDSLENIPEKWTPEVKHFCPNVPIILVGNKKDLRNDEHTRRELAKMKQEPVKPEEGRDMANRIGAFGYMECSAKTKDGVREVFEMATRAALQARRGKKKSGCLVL
KRas G12D/Q61H double mutant, sequence (P01116-2 other isoform, or with tags, fused parts or gaps G12D/Q61H): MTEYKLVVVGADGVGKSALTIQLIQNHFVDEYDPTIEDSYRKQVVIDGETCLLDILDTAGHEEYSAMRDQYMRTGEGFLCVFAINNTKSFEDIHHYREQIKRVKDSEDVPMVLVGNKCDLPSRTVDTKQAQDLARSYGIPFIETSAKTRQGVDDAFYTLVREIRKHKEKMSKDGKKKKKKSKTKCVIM

As to `Cc1sc2c(O)nc(-c3ccccn3)nc2c1-c1ccccc1`, the “TNF-α % Inhibition at 30 μM” value with TNFα is “A (A = 1-25% inhibition)”. Also, the “IL-6 % Inhibition at 30 μM” value with IL6 was “C (C = 51-75% inhibition)”. Turning to `Cc1sc2c(O)nc(-c3ccccn3)nc2c1Br` [drawing 2319], the “IL-6 % Inhibition at 30 μM” value in the test with IL6 is listed as “A (A = 1-25% inhibition)”. Take `OC[C@H]1O[C@@H](c2csc3c2N=C(c2ccccn2)NC3O)[C@H](O)[C@@H]1O` (stereo partly shown) [drawing 2388]: the inhibition at 30 µM in the test on TNFα lay within 26 to 50%; in the test with IL6, 1 to 25%. For the compound `Nc1nc(-c2ccccn2)nc2c(C3CCCC3)csc12`, the figures for the inhibition at 30 µM in the test with TNFα and in the test on IL6 were 26 to 50% and 51 to 75%, respectively.

In turn, `COCC(C)Nc1nc(-c2ccccn2)nc2sc(-c3ccncc3)c(-c3ccccc3)c12` (stereo not shown) had an inhibition at 10 µM in test [1] of 51 to 75%. Still for that read-out and setting: with `SOCCNc1nc(-c2ccccn2)nc2sc(-c3ccccc3)c(-c3ccccn3)c12` the figure was 76 to 100%. With `O=C(c1csc2c(O)nc(-c3ccccn3)nc12)N1CCN(c2ccc(O)c(O)c2)CC1`, the inhibition at 20 µM in test [2] lay within 51 to 75%; at Rac-1, 76 to 100%; at Rho-A, 76 to 100%. With `O=C(NCCc1cnc(O)nc1)c1csc2nc(-c3ccccn3)nc(N3CCSCC3)c12` [drawing 3752], the inhibition at 20 µM fell in the range of 25 to 50% in test [2], 51 to 75% at Rac-1 and 51 to 75% at Rho-A. As to `COc1nc(-c2ccccn2)nc2c(-c3cc(CN4CCCC4)ccc3F)csc12`, the inhibition at 10 µM in test [1] is 76 to 100%.

For the compound `Cn1cc(-c2nc(C(=O)Nc3nnc(-c4ccccn4)[nH]3)cs2)cn1`, in the test with TNFα, the inhibition at 30 µM turned out to be 0%. `COc1ccc(CCNC(=O)c2csc3nc(-c4ccccn4)nc(N4CCSCC4)c23)cn1` [drawing 2280]: the results for the inhibition at 30 µM in the test with TNFα and in the test on IL6 were 0% and 26 to 50%, respectively. Regarding `COCCCCNC(=O)c1csc2nc(-c3ccccn3)nc(O)c12`, the inhibition at 20 µM (in test [2]; at Rac-1; on Rho-A) was 1 to 25% each time.

Turning to `Nc1nc(-c2ccccn2)nc2c(C3CCCCC3)csc12`, the inhibition at 30 µM in the test on TNFα and in the test on IL6 was 0% throughout.

`COc1ccc(CCNC(=O)c2csc3nc(-c4ccccn4)nc(N4CCSCC4)c23)cn1` [drawing 3751]: the figures for the inhibition at 20 µM (in test [2]; on Rac-1; on Rho-A) were 25 to 50%, 25 to 50% and 1 to 25%, respectively. As to `COc1ccc(N2CCN(C(=O)c3csc4c(O)cc(-c5ccccn5)cc34)CC2)cc1O`, the inhibition at 20 µM lay in the range of 1 to 25% in test [2], 76 to 100% on Rac-1 and 76 to 100% on Rho-A.

Regarding `O=c1[nH]c(-c2ccccn2)nc2c(C3O[C@H](CO)[C@@H](O)[C@H]3O)csc12` (stereo partly shown), in test [1], the inhibition at 10 µM lay within 76 to 100%. In test [1], `Cn1ccnc1-c1nc(NCCOS)c2c(-c3ccccn3)c(-c3ccccc3)sc2n1` showed an inhibition at 10 µM of 76 to 100% and a half-inhibitory concentration (IC50) of 501 to 1000 nM. Take `COCC(C)Nc1nc(-c2ccccc2)nc2sc(-c3ccncc3)c(-c3ccccc3)c12` (stereo not shown): the results for the inhibition at 30 µM with TNFα and with IL6 were 26 to 50% and 0%, respectively.

For `COc1nc(-c2ccccn2)nc2c(-c3cccc(C#N)c3)csc12`, the inhibition at 10 µM in test [1] was 76 to 100%. Regarding `COOCCNc1nc(-c2nccn2C)nc2sc(-c3ccccc3)c(-c3ccccc3)c12`, in test [1], the inhibition at 10 µM lay within 76 to 100% and the IC50 is 501 to 1000 nM. With `Cc1cc2nc(-c3ccccn3)nc(O)c2s1` [drawing 2263], the inhibition at 30 µM in the test on TNFα and with IL6 was 1 to 25% in each case. Take `Cc1sc2c(O)nc(-c3ccccn3)nc2c1Br` [drawing 2383]: in the test on TNFα, the “TNF-α % Inhibition at 30 μM” value is listed as 0 (0 = 0% inhibition). As for `O=C(NCCc1cnc(O)nc1)c1csc2nc(-c3ccccn3)nc(N3CCSCC3)c12` [drawing 2281], the inhibition at 30 µM was 0% with TNFα and 51 to 75% in the test on IL6. For `O=C(O)c1csc2nc(-c3ccccn3)nc(O)c12` the same measures were 1 to 25% and 1 to 25%. For `Cc1sc2c(N)nc(-c3ccccn3)nc2c1-c1ccccc1Cl` the same measures were 51 to 75% and 51 to 75%. As to `CN(C)CCOc1cccc(-c2csc3c(O)nc(-c4ccccn4)nc23)c1`, the inhibition at 20 µM on Rac-1 and on Rho-A was 76 to 100% throughout. Regarding `Nc1cccc(-c2csc3c(N)nc(-c4ccccn4)nc23)n1`, the inhibition at 30 µM fell in the range of 26 to 50% in the test on TNFα and 76 to 100% in the test with IL6.

For `Oc1nc(-c2ccccn2)nc2c(-c3cccnc3)c(C(F)(F)F)sc12`, the results for the inhibition at 30 µM in the test on TNFα and with IL6 were 0% and 51 to 75%, respectively. Take `CC(C)Cc1csc2c(N)nc(-c3ccccn3)nc12`: the inhibition at 30 µM in the test on TNFα and with IL6 was 76 to 100% in each case. For `COc1nc(-c2ccccn2)nc2c(-c3cn(C)nc3C(C)C)csc12`, the inhibition at 10 µM in test [1] is 76 to 100%. Turning to `COC(=O)c1csc2nc(-c3ccccn3)nc(O)c12`, the inhibition at 30 µM was 0% in the test on TNFα and 51 to 75% in the test with IL6.

`O=C(c1csc2c(O)nc(-c3ccccn3)nc12)N1CCNC(c2ccc(O)cc2)C1` (stereo not shown): the inhibition at 20 µM on Rac-1 and at Rho-A was 76 to 100% each time.

Regarding `Cc1ccc(CC(=O)Nc2nnc(-c3ccccn3)[nH]2)cc1`, the inhibition at 30 µM in the test on IL6 lay in the range of 51 to 75%. For the compound `COc1nc(-c2ccccn2)nc2c(-c3cccc(O)c3)csc12`, the inhibition at 10 µM in test [1] was in the range of 76 to 100%. Take `COc1cnc(CNC(=O)c2c(C)sc3c(O)nc(-c4ccccn4)nc23)[nH]c1=O`: the inhibition at 20 µM on Rac-1 and on Rho-A was 1 to 25% each time. On to `CCC1N=C(C)C=C1c1csc2c(O)nc(-c3ccccn3)nc12` (stereo not shown), for which the results for the inhibition at 20 µM (in test [2]; at Rac-1; at Rho-A) were 51 to 75%, 51 to 75% and 76 to 100%, respectively.

One may read the IC50 as the point on the concentration scale where inhibition reaches its midpoint. The low end stands for higher potency, the high end for lower potency.

Values taken from patent publication US11541041B1, “Compounds that interact with the Ras superfamily for the treatment of cancers, inflammatory diseases, Rasopathies, and fibrotic disease” (Shy Therapeutics LLC, priority 2017, dated 2023).
